Columns and labels:
P2X7 [1] = target: T1, P2X7 (Homo sapiens (Human), UniProt Q99572); assay: Ca2+ flux (FLIPR) in 1321N1 cells expressing recombinant human P2X7 channel; type: cell-based; settings: 250 μM BzATP
Description: (§1) (A) Ca^2+ Flux: 1321N1 cells expressing the recombinant human, rat or mouse P2X7 channel was cultured in HyQ DME/(HyClone/Dulbecco's Modified Eagle Medium) high glucose supplemented with 10% Fetal Bovine Serum (FBS) and appropriate selection marker. Cells were seeded at a density of 25000 cells/well (96-well clear bottom black walled plates) in 100 μl volume/well. On the day of the experiment, cell plates were washed with assay buffer, containing (in mM): 130 NaCl, 2 KCl, 1 CaCl2, 1 MgCl2, 10 HEPES, 5 glucose; pH 7.40 and 300 mOs. After the wash, cells were loaded with the Calcium-4 dye (Molecular Device) and incubated in the dark for 60 minutes. Test compounds were prepared at 250× the test concentration in neat DMSO. Intermediate 96-well compound plates were prepared by transferring 1.2 μL of the compound into 300 μL of assay buffer. A further 3× dilution occurred when transferring 50 μL/well of the compound plate to 100 μL/well in the cell plate. Cells were incubated with test compounds and dye for 30 minutes. […] The fluorescence change was measured 180 seconds after adding the agonist.

rat P2X7 = rat P2X7 (Rattus norvegicus (Rat), UniProt Q64663); assay: Ca2+ flux (FLIPR) in 1321N1 cells expressing recombinant rat P2X7 channel; type: cell-based; settings: 250 μM BzATP
Sequence of rat P2X7 (Q64663 whole entry): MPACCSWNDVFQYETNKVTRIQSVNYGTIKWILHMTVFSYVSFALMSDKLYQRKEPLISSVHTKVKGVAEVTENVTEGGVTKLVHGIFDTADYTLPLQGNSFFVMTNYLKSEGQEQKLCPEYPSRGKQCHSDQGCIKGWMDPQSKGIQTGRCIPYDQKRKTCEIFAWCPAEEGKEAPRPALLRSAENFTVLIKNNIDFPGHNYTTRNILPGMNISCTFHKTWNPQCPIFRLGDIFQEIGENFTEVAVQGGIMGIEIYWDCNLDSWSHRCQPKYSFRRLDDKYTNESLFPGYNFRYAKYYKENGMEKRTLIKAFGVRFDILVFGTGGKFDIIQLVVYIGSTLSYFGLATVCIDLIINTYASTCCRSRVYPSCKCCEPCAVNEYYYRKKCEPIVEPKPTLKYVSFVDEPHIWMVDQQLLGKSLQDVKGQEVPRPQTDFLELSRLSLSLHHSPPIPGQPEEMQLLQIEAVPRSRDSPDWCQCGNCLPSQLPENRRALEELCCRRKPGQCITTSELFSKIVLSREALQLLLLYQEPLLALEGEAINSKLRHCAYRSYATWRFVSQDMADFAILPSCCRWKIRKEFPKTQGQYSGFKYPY
Description: as §1

P2X7 [2] = target: T1, P2X7; assay: Radioligand binding, human P2X7-1321N1 cell membranes, tritiated A-804598 tracer; settings: 1 hour at 4° C.
Description: (B) Radioligand binding: human or rat P2X7-1321N1 cells were collected and frozen @ −80° C. On the day of the experiment, cell membrane preparations were made according to standard published methods. […] The compound can be prepared as described in the literature. […] The assay was terminated by filtration (GF/B filters pre-soaked with 0.3% PEI) and washed with washing buffer (Tris-HCl 50 mM). The IC50 generated in the binding assay was corrected for tracer concentration and affinity of the tracer to derive at the affinity (Ki) of the test compounds.

T1 sequence (Q99572 whole entry): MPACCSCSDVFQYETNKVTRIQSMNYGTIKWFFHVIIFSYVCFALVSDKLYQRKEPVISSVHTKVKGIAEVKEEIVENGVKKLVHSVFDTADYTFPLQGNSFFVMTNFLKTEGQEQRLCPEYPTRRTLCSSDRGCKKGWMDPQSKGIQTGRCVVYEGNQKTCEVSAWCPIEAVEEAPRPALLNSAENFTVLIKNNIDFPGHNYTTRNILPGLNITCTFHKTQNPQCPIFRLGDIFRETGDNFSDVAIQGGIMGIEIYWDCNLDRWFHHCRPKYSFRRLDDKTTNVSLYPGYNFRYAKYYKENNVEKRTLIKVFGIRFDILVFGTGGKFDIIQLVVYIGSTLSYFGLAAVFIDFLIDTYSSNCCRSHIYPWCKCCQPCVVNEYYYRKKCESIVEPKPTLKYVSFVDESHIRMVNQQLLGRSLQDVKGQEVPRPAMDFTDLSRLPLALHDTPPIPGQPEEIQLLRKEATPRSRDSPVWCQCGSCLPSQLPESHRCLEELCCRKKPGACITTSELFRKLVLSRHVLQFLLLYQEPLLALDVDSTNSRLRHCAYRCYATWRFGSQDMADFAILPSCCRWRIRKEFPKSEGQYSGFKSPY

IC50 (P2X7 [1]) [nM] | IC50 (rat P2X7) [nM] | Ki (P2X7 [2]) [nM] | SMILES
177 | 19900 |  | C[C@H]1Cn2c(nnc2-c2cccnn2)C(=O)N1Cc1cccc(C(F)(F)F)c1Cl [Example 44, (6S)-7-[2-Chloro-3-(trifluoromethyl)benzyl]-6-methyl-3-pyridazin-3-yl-6,7-dihydro[1,2,4]triazolo[4,3-a]pyrazin-8(5H)-one]
148 | 28400 | 63.1 | O=C1c2nnc(-c3ccc(F)cc3)n2CCN1Cc1cccc(C(F)(F)F)c1Cl [Example 1, 7-[2-Chloro-3-(trifluoromethyl)benzyl]-3-(4-fluorophenyl)-6,7-dihydro[1,2,4]triazolo[4,3-a]pyrazin-8(5H)-one]
0.7 | 10.6 | 2 | COc1ccnc(-c2nnc3n2C[C@H](C)N(Cc2cccc(C(F)(F)F)c2Cl)C3=O)c1 [Example 35, (6S)-7-[2-Chloro-3-(trifluoromethyl)benzyl]-3-(4-methoxypyridin-2-yl)-6-methyl-6,7-dihydro[1,2,4]triazolo[4,3-a]pyrazin-8(5H)-one]
371 | > 10000 |  | C[C@H]1Cn2c(nnc2C2CC2)C(=O)N1Cc1cccc(C(F)(F)F)c1Cl [Example 50, (6S)-7-[2-Chloro-3-(trifluoromethyl)benzyl]-3-cyclopropyl-6-methyl-6,7-dihydro[1,2,4]triazolo[4,3-a]pyrazin-8(5H)-one]
1 |  |  | C[C@H]1Cn2c(nnc2-c2ncc(F)cn2)C(=O)N1Cc1cccc(C(F)(F)F)c1Cl [Example 34, (6S)-7-[2-Chloro-3-(trifluoromethyl)benzyl]-3-(5-fluoropyrimidin-2-yl)-6-methyl-6,7-dihydro[1,2,4]triazolo[4,3-a]pyrazin-8(5H)-one]
42.5 | 1560 | 31.6 | Cc1cccc(C)c1CN1C(=O)c2nnc(-c3cnccn3)n2C[C@@H]1C [Example 87, (6S)-7-(2,6-Dimethylbenzyl)-6-methyl-3-pyrazin-2-yl-6,7-dihydro[1,2,4]triazolo[4,3-a]pyrazin-8(5H)-one]
7.9 | 794 | 7.9 | O=C1c2nnc(-c3ncc(F)cn3)n2CC(C2CC2)N1Cc1cccc(C(F)(F)F)c1Cl (racemic) [Example 70, (±)-7-[2-Chloro-3-(trifluoromethyl)benzyl]-6-cyclopropyl-3-(5-fluoropyrimidin-2-yl)-6,7-dihydro[1,2,4]triazolo[4,3-a]pyrazin-8(5H)-one]
3.3 | 154 | 12.6 | Cc1cccc(-c2nnc3n2C[C@H](C)N(Cc2cccc(C(F)(F)F)c2Cl)C3=O)n1 [Example 46, (6S)-7-[2-Chloro-3-(trifluoromethyl)benzyl]-6-methyl-3-(6-methylpyridin-2-yl)-6,7-dihydro[1,2,4]triazolo[4,3-a]pyrazin-8(5H)-one]
2690 | > 10000 |  | CC(c1cccc(C(F)(F)F)c1Cl)N1CCn2c(nnc2-c2cnccn2)C1=O (racemic) [Example 4, (±)7-{1-[2-Chloro-3-(trifluoromethyl)phenyl]ethyl}-3-pyrazin-2-yl-6,7-dihydro[1,2,4]triazolo[4,3-a]pyrazin-8(5H)-one]
3400 | > 10000 |  | CS(=O)(=O)c1cc(Cl)ccc1CN1CCn2c(nnc2-c2cnccn2)C1=O [Example 7, 7-[4-Chloro-2-(methylsulfonyl)benzyl]-3-pyrazin-2-yl-6,7-dihydro[1,2,4]triazolo[4,3-a]pyrazin-8(5H)-one]
1.5 | 5.1 | 10 | CC[C@H]1Cn2c(nnc2-c2cc[nH]n2)C(=O)N1Cc1cccc(C(F)(F)F)c1Cl [Example 74, (6S)-7-[2-Chloro-3-(trifluoromethyl)benzyl]-6-ethyl-3-(1H-pyrazol-3-yl)-6,7-dihydro[1,2,4]triazolo[4,3-a]pyrazin-8(5H)-one]
386 | 13200 |  | C[C@H]1Cn2c(nnc2C2CCC2)C(=O)N1Cc1cccc(C(F)(F)F)c1Cl [Example 49, (6S)-7-[2-Chloro-3-(trifluoromethyl)benzyl]-3-cyclobutyl-6-methyl-6,7-dihydro[1,2,4]triazolo[4,3-a]pyrazin-8(5H)-one]
822 | 11100 |  | C[C@H]1Cn2c(nnc2-c2cnccn2)C(=O)N1Cc1ccccc1OC(F)(F)F [Example 83, (6S)-6-Methyl-3-pyrazin-2-yl-7-[2-(trifluoromethoxy)benzyl]-6,7-dihydro[1,2,4]triazolo[4,3-a]pyrazin-8(5H)-one]
 | > 10000 |  | C[C@H]1Cn2c(nnc2C2CCOCC2)C(=O)N1Cc1cccc(C(F)(F)F)c1Cl [Example 53, (6S)-7-[2-Chloro-3-(trifluoromethyl)benzyl]-6-methyl-3-(tetrahydro-2H-pyran-4-yl)-6,7-dihydro[1,2,4]triazolo[4,3-a]pyrazin-8(5H)-one]
 | > 10000 |  | O=C1c2nnc(-c3cnccn3)n2CCN1Cc1cccc(F)c1F [Example 6, 7-(2,3-Difluorobenzyl)-3-pyrazin-2-yl-6,7-dihydro[1,2,4]triazolo[4,3-a]pyrazin-8(5H)-one]
17.5 | > 10000 | 7.9 | C[C@H]1Cn2c(nnc2-c2ncc(Br)cn2)C(=O)N1Cc1cccc(C(F)(F)F)c1Cl [Example 42, (6S)-3-(5-Bromopyrimidin-2-yl)-7-[2-chloro-3-(trifluoromethyl)benzyl]-6-methyl-6,7-dihydro[1,2,4]triazolo[4,3-a]pyrazin-8(5H)-one]
22.4 | 8670 | 27.5 | Cc1nc(C)c(-c2nnc3n2C[C@H](C)N(Cc2cccc(C(F)(F)F)c2Cl)C3=O)s1 [Example 39, (6S)-7-[2-Chloro-3-(trifluoromethyl)benzyl]-3-(2,4-dimethyl-1,3-thiazol-5-yl)-6-methyl-6,7-dihydro[1,2,4]triazolo[4,3-a]pyrazin-8(5H)-one]
 | 1370 |  | C[C@H]1Cn2c(nnc2-c2cnccn2)C(=O)N1Cc1c(Cl)cccc1Cl [Example 86, (6S)-7-(2,6-Dichlorobenzyl)-6-methyl-3-pyrazin-2-yl-6,7-dihydro[1,2,4]triazolo[4,3-a]pyrazin-8(5H)-one]
 | 41400 |  | C[C@H]1Cn2c(nnc2-c2cnccn2)C(=O)N1Cc1ccccc1Cl [Example 80, (6S)-7-(2-Chlorobenzyl)-6-methyl-3-pyrazin-2-yl-6,7-dihydro[1,2,4]triazolo[4,3-a]pyrazin-8(5H)-one]
1000 | 20000 |  | C[C@H]1Cn2c(nnc2-c2cnccn2)C(=O)N1Cc1cc([N+](=O)[O-])ccc1Cl [Example 90, (6S)-7-(2-Chloro-5-nitrobenzyl)-6-methyl-3-pyrazin-2-yl-6,7-dihydro[1,2,4]triazolo[4,3-a]pyrazin-8(5H)-one]
26.4 | 7280 |  | C[C@H]1Cn2c(nnc2-c2cnccn2)C(=O)N1Cc1ccccc1[N+](=O)[O-] [Example 89, (6S)-6-Methyl-7-(2-nitrobenzyl)-3-pyrazin-2-yl-6,7-dihydro[1,2,4]triazolo[4,3-a]pyrazin-8(5H)-one]
942 | 2560 |  | O=C1c2nnc(-c3cnccn3)n2CCN1Cc1c(Cl)cccc1Cl [Example 5, 7-(2,6-Dichlorobenzyl)-3-pyrazin-2-yl-6,7-dihydro[1,2,4]triazolo[4,3-a]pyrazin-8(5H)-one]
 | > 10000 |  | C[C@H]1Cn2c(nnc2-c2cnccn2)C(=O)N1Cc1ccccc1 [Example 79, (6S)-7-Benzyl-6-methyl-3-pyrazin-2-yl-6,7-dihydro[1,2,4]triazolo[4,3-a]pyrazin-8(5H)-one]
1220 | 18900 |  | C[C@H]1Cn2c(nnc2-c2cnccn2)C(=O)N1Cc1cc(N)ccc1Cl [Example 91, (6S)-7-(5-Amino-2-chlorobenzyl)-6-methyl-3-pyrazin-2-yl-6,7-dihydro[1,2,4]triazolo[4,3-a]pyrazin-8(5H)-one]
340 | > 10000 |  | C[C@H]1Cn2c(nnc2-c2cnccn2)C(=O)N1Cc1cc2c(cc1Cl)OCO2 [Example 84, (6S)-7-[(6-Chloro-1,3-benzodioxol-5-yl)methyl]-6-methyl-3-pyrazin-2-yl-6,7-dihydro[1,2,4]triazolo[4,3-a]pyrazin-8(5H)-one]
977 | 2610 |  | C[C@H]1Cn2c(nnc2-c2csc(C(F)(F)F)n2)C(=O)N1Cc1cccc(C(F)(F)F)c1Cl [Example 38, (6S)-7-[2-Chloro-3-(trifluoromethyl)benzyl]-6-methyl-3-[2-(trifluoromethyl)-1,3-thiazol-4-yl]-6,7-dihydro[1,2,4]triazolo[4,3-a]pyrazin-8(5H)-one]
766 | > 10000 |  | C[C@H]1Cn2c(nnc2C2CCCCC2)C(=O)N1Cc1cccc(C(F)(F)F)c1Cl [Example 51, (6S)-7-[2-Chloro-3-(trifluoromethyl)benzyl]-3-cyclohexyl-6-methyl-6,7-dihydro[1,2,4]triazolo[4,3-a]pyrazin-8(5H)-one]

From US9040534B2, “[1,2,4]triazolo[4,3-a]pyrazines as P2X7 modulators” (Janssen Pharmaceutica NV, priority 2013, dated 2015)
